The source of these data is PubChem BioAssay AID651650 (Sanford-Burnham Center for Chemical Genomics, 2012).

This assay has as its target Neuropilin-1 (Homo sapiens) (UniProt O14786). Briefly: blockers of CendR peptide binding to NRP-1 – biochemical, FP and AlphaScreen panel, dose response (AID 651650). Particulars: NRP-1 b1b2 / RPARPAR peptide binding, FP or AlphaScreen. On the technique in general: Alpha assays give light when donor and acceptor beads are brought close together.
The mark [1] stands for this setting: AlphaScreen, run 1, individual panel run IC50.
The mark [2] stands for this setting: FP, run 1, individual panel run IC50.
Where [3] appears, read: FP, run 2, individual panel run IC50.

SMILES strings stand for the structures. Calls of active or inactive are those of the source.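 The calls were made as follows: active = mean IC50 below 20 µM in each of the two panels, so potent in both; inactive = the rest.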 A value given as a limit tells only on which side of the number the result lay.

Sequence of Neuropilin-1 (Homo sapiens) (O14786 whole entry, looked up): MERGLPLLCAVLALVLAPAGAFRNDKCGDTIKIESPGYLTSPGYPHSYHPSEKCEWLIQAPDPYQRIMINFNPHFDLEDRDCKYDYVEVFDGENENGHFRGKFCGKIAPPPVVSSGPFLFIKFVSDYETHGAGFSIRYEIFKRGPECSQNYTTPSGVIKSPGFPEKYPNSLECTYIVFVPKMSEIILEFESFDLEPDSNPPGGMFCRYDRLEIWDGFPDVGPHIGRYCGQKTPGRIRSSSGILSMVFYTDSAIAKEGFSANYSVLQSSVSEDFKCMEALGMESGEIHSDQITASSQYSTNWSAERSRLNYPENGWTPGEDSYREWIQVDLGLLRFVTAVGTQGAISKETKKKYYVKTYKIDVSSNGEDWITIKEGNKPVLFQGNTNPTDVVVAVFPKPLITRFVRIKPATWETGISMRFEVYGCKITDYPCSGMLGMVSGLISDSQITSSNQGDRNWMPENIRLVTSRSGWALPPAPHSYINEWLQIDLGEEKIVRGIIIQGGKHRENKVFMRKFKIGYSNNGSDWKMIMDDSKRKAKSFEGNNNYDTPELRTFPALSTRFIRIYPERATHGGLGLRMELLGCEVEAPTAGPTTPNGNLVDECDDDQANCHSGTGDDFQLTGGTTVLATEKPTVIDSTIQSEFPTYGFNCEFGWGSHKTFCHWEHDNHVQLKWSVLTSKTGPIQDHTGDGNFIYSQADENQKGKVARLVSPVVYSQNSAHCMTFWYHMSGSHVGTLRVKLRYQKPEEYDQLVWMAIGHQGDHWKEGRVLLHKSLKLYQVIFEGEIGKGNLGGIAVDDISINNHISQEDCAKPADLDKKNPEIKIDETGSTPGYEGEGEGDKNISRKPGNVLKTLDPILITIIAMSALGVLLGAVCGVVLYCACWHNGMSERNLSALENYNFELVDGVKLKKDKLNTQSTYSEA

Consider `CCCNC(=S)Nc1cccc(C(F)(F)F)c1`, for which the IC50 runs as follows: (AlphaScreen, mean of runs) > 100 µM (inactive); under setting [1], greater than 100 µM; (FP, mean of runs) > 95 µM (inactive); under setting [2], greater than 95 µM; under setting [3], greater than 95 µM.
On to `CCOC(=O)C1CCN(S(=O)(=O)c2ccc3c(c2)CCN3C(=O)C2CCC2)CC1`, for which the IC50 reads like this: (AlphaScreen, mean of runs) > 100 µM (inactive); under setting [1], greater than 100 µM; (FP, mean of runs) > 95 µM (inactive); under setting [2], greater than 95 µM; under setting [3], greater than 95 µM.
Regarding `CC1(C)CN=C(Nc2ccc(F)c(Cl)c2)S1`, the IC50 by setting is: (AlphaScreen, mean of runs) 18.9 µM; under setting [1], 18.9 µM; (FP, mean of runs) > 95 µM (inactive); under setting [2], greater than 95 µM; under setting [3], greater than 95 µM.
Consider `Cc1onc(-c2ccccc2)c1C(=O)N1CCCC1`, for which the IC50 (AlphaScreen, mean of runs) is > 100 µM (inactive); the IC50 under setting [1] was greater than 100 µM; the IC50 (FP, mean of runs) was > 95 µM (inactive); the IC50 under setting [2] is greater than 95 µM; the 50% inhibitory concentration (IC50) under setting [3] is greater than 95 µM.
With `CCOC(=O)c1c2ccc(OCC(=O)NN)cc2n2ccccc12`, the IC50 runs as follows: (AlphaScreen, mean of runs) > 100 µM (inactive); under setting [1], greater than 100 µM; (FP, mean of runs) > 95 µM (inactive); under setting [2], greater than 95 µM; under setting [3], greater than 95 µM.
Turning to `COC(=O)C1N[C@@H]([C@@H](NC(=O)COc2ccccc2)C(=O)NCc2ccccc2)SC1(C)C` (stereo not given in full), the IC50 reads like this: (AlphaScreen, mean of runs) > 100 µM (inactive); under setting [1], greater than 100 µM; (FP, mean of runs) > 95 µM (inactive); under setting [2], greater than 95 µM; under setting [3], greater than 95 µM.
For the compound `Cc1ccc(Cl)c(NC(=O)CSc2cccc[n+]2[O-])c1Cl`, the IC50 is, setting by setting: (AlphaScreen, mean of runs) > 100 µM (inactive); under setting [1], greater than 100 µM; (FP, mean of runs) > 95 µM (inactive); under setting [2], greater than 95 µM; under setting [3], greater than 95 µM.
As for `CC(CN1CCOCC1)OC(=O)c1ccc2c(c1)OCCO2` (stereo not given), the IC50 was > 100 µM (inactive) (AlphaScreen, mean of runs); greater than 100 µM under setting [1]; > 95 µM (inactive) (FP, mean of runs); greater than 95 µM under setting [2]; greater than 95 µM under setting [3].
For the compound `CC(C(=O)N1CCN(c2ccc(Cl)cc2)CC1)c1ncc(C(F)(F)F)cc1Cl` (stereo not given), the IC50 (AlphaScreen, mean of runs) was > 100 µM (inactive); the half-maximal inhibitory concentration (IC50) under setting [1] was greater than 100 µM; the IC50 (FP, mean of runs) is > 95 µM (inactive); the IC50 under setting [2] was greater than 95 µM; the IC50 under setting [3] is greater than 95 µM.
Turning to `CCC(=O)Nc1cc2c3c(c1)CCC(=O)N3CCC2`, the half-maximal inhibitory concentration (IC50) (AlphaScreen, mean of runs) is 13.8 µM; the IC50 under setting [1] was determined as 13.8 µM; the IC50 (FP, mean of runs) is > 95 µM (inactive); the IC50 under setting [2] is greater than 95 µM; the IC50 under setting [3] was greater than 95 µM.
As to `Cc1ccc(OCC(=O)Nc2ccc(C)c(S(=O)(=O)N3CCCCCC3)c2)c([N+](=O)[O-])n1`, the IC50 runs as follows: (AlphaScreen, mean of runs) > 100 µM (inactive); under setting [1], greater than 100 µM; (FP, mean of runs) > 95 µM (inactive); under setting [2], greater than 95 µM; under setting [3], greater than 95 µM.
As to `CSCCC(NC(=O)c1ccc(Cl)cc1Cl)C(=O)NCC(c1cccs1)N(C)C` (stereo not given), the IC50 runs as follows: (AlphaScreen, mean of runs) > 100 µM (inactive); under setting [1], greater than 100 µM; (FP, mean of runs) > 95 µM (inactive); under setting [2], greater than 95 µM; under setting [3], greater than 95 µM.
On to `Cc1ccc(N(C(=O)c2ccc(CN3CCOCC3)o2)C(C(=O)NCCC(C)C)c2cccs2)c(C)c1` (stereo not given), for which the IC50 reads like this: (AlphaScreen, mean of runs) > 100 µM (inactive); under setting [1], greater than 100 µM; (FP, mean of runs) > 95 µM (inactive); under setting [2], greater than 95 µM; under setting [3], greater than 95 µM.
On to `Cc1cccc(N(CC(=O)NC2CCCC2)C(=O)CS(=O)CC(=O)Nc2ccc3c(c2)OCO3)c1C` (stereo not given), for which the IC50 by setting is: (AlphaScreen, mean of runs) > 100 µM (inactive); under setting [1], greater than 100 µM; (FP, mean of runs) > 95 µM (inactive); under setting [2], greater than 95 µM; under setting [3], greater than 95 µM.
As to `C=C1CCN(C(C(=O)OC)C(C)C)S(=O)(=O)c2ccc(F)cc21` (stereo not given), the IC50 is > 100 µM (inactive) (AlphaScreen, mean of runs); greater than 100 µM under setting [1]; > 95 µM (inactive) (FP, mean of runs); greater than 95 µM under setting [2]; greater than 95 µM under setting [3].
Take `CCOC(=O)/C=C/COc1ccccc1[N+](=O)[O-]`: the IC50 (AlphaScreen, mean of runs) is > 100 µM (inactive); the half-inhibitory concentration (IC50) under setting [1] was greater than 100 µM; the IC50 (FP, mean of runs) is > 95 µM (inactive); the IC50 under setting [2] is greater than 95 µM; the half-maximal inhibitory concentration (IC50) under setting [3] was greater than 95 µM.
On to `CCN(CC)C(=O)C1CCCN(C(=O)Nc2ccc3nsnc3c2)C1` (stereo not given), for which the IC50 (AlphaScreen, mean of runs) is > 100 µM (inactive); the half-inhibitory concentration (IC50) under setting [1] is greater than 100 µM; the IC50 (FP, mean of runs) is > 95 µM (inactive); the half-inhibitory concentration (IC50) under setting [2] was greater than 95 µM; the half-inhibitory concentration (IC50) under setting [3] is greater than 95 µM.
For `C=C1C[C@@]23CCC4[C@@](C)(CCC[C@@]4(C)C(=O)O)C2CC[C@]1(O)C3` (stereo not given in full), the IC50 is > 100 µM (inactive) (AlphaScreen, mean of runs); greater than 100 µM under setting [1]; > 95 µM (inactive) (FP, mean of runs); greater than 95 µM under setting [2]; greater than 95 µM under setting [3].
`CCOc1ccc(S(=O)(=O)N2CCN(C(=O)c3sccc3C)CC2)cc1`: the 50% inhibitory concentration (IC50) was 14.5 µM (AlphaScreen, mean of runs); 14.5 µM under setting [1]; > 95 µM (inactive) (FP, mean of runs); greater than 95 µM under setting [2]; greater than 95 µM under setting [3].
With `CC(C)NC(=O)c1c(CSc2ccccc2)noc1C(=O)NCc1ccccc1`, the IC50 is > 100 µM (inactive) (AlphaScreen, mean of runs); greater than 100 µM under setting [1]; > 95 µM (inactive) (FP, mean of runs); greater than 95 µM under setting [2]; greater than 95 µM under setting [3].
In the case of `O=C(NNC(=O)C1CCN(c2ncccn2)CC1)c1ccc(F)cc1`, the IC50 (AlphaScreen, mean of runs) is > 100 µM (inactive); the concentration for half-maximal inhibition (IC50) under setting [1] is greater than 100 µM; the IC50 (FP, mean of runs) is > 95 µM (inactive); the IC50 under setting [2] was greater than 95 µM; the IC50 under setting [3] is greater than 95 µM.
In the case of `COc1ccc(NC(=O)CN(C)CC(=O)Nc2cccc(F)c2)cc1Cl`, the IC50 result (AlphaScreen, mean of runs) is “inactive”. The half-maximal inhibitory concentration (IC50) was 35.5 µM under setting [1]; > 95 µM (inactive) (FP, mean of runs); greater than 95 µM under setting [2]; greater than 95 µM under setting [3].
With `CCOC(=O)C1=C(C)NC2=C(C(=O)CCC2)C1c1cn(Cc2ccc(Cl)cc2Cl)nc1-c1ccccc1` (stereo not given), the IC50 result (AlphaScreen, mean of runs) was “inactive”. Further, the IC50 was 35.5 µM under setting [1]; > 95 µM (inactive) (FP, mean of runs); greater than 95 µM under setting [2]; greater than 95 µM under setting [3].
On to `c1ccc2c(CNc3ccc(CNc4ncn[nH]4)cc3)cccc2c1`, for which the IC50 (AlphaScreen, mean of runs) is > 100 µM (inactive); the half-maximal inhibitory concentration (IC50) under setting [1] was greater than 100 µM; the IC50 (FP, mean of runs) is > 95 µM (inactive); the concentration for half-maximal inhibition (IC50) under setting [2] was greater than 95 µM; the IC50 under setting [3] is greater than 95 µM.
For `NCCCC[C@H]1CN=C(N)N1CCC12CC3CC(CC(C3)C1)C2`, for the setting “AlphaScreen, mean of runs”, the IC50 entry was “inactive”. The IC50 is 50.2 µM under setting [1]; > 95 µM (inactive) (FP, mean of runs); greater than 95 µM under setting [2]; greater than 95 µM under setting [3].
On to `Cn1c(SCc2nc3ccccc3s2)nnc1-c1cccs1`, for which, where the note is “AlphaScreen, mean of runs”, the IC50 entry is “inactive”. Also, the IC50 was 46.6 µM under setting [1]; > 95 µM (inactive) (FP, mean of runs); greater than 95 µM under setting [2]; greater than 95 µM under setting [3].
With `COc1ccc(NC(=O)CN2CCN(c3c(C)cc(C)cc3C)CC2)cc1`, the IC50 reads like this: (AlphaScreen, mean of runs) > 100 µM (inactive); under setting [1], greater than 100 µM; (FP, mean of runs) > 95 µM (inactive); under setting [2], greater than 95 µM; under setting [3], greater than 95 µM.
For `O=C(Nc1ccc(F)cc1)c1cc(S(=O)(=O)Nc2ccc(F)cc2)cs1`, the IC50 is > 100 µM (inactive) (AlphaScreen, mean of runs); greater than 100 µM under setting [1]; > 95 µM (inactive) (FP, mean of runs); greater than 95 µM under setting [2]; greater than 95 µM under setting [3].
Consider `CCOc1ccc(C2CC(c3ccc(CC)cc3)n3nc(N)nc3N2)cc1` (stereo not given), for which the IC50 (AlphaScreen, mean of runs) was > 100 µM (inactive); the 50% inhibitory concentration (IC50) under setting [1] is greater than 100 µM; the IC50 (FP, mean of runs) was > 95 µM (inactive); the 50% inhibitory concentration (IC50) under setting [2] was greater than 95 µM; the IC50 under setting [3] is greater than 95 µM.
In the case of `COC(=O)CCCC1=CC2=CC(=O)C(C)(OC(=O)c3cccs3)C(=O)C2=CN1CCCCO` (stereo not given), the IC50 reads like this: (AlphaScreen, mean of runs) > 100 µM (inactive); under setting [1], greater than 100 µM; (FP, mean of runs) > 95 µM (inactive); under setting [2], greater than 95 µM; under setting [3], greater than 95 µM.
Take `CC(C)C1=C2CCCCC2NC(=O)N1` (stereo not given): the IC50 runs as follows: (AlphaScreen, mean of runs) > 100 µM (inactive); under setting [1], greater than 100 µM; (FP, mean of runs) > 95 µM (inactive); under setting [2], greater than 95 µM; under setting [3], greater than 95 µM.
Turning to `CN1C(=O)c2oc3ccccc3c(=O)c2C1c1ccccn1` (stereo not given), the IC50 entry was “inactive” (AlphaScreen, mean of runs) and “inactive” (FP, mean of runs). In addition, the half-inhibitory concentration (IC50) under setting [1] worked out at 34.9 µM, the half-maximal inhibitory concentration (IC50) under setting [2] is 25.1 µM and the IC50 under setting [3] was 21.4 µM.
With `CCCCN(c1ccccc1)S(=O)(=O)c1ccc2c(c1)CCN2C(=O)CCC(=O)O`, the IC50 is, setting by setting: (AlphaScreen, mean of runs) > 100 µM (inactive); under setting [1], greater than 100 µM; (FP, mean of runs) > 95 µM (inactive); under setting [2], greater than 95 µM; under setting [3], greater than 95 µM.
Take `CCOc1ccc(-n2c(Cc3cc(=O)[nH]c(=O)[nH]3)nnc2SC(C)C)cc1`: the IC50 (AlphaScreen, mean of runs) is > 100 µM (inactive); the IC50 under setting [1] is greater than 100 µM; the IC50 (FP, mean of runs) is > 95 µM (inactive); the IC50 under setting [2] was greater than 95 µM; the 50% inhibitory concentration (IC50) under setting [3] is greater than 95 µM.

By IC50 is commonly meant the concentration at which inhibition is half-maximal.
